A word on the IC50: it is the concentration needed to halve the response being measured. Lower therefore signals greater potency in that assay.

SMILES strings stand for the structures.

The text below walks through data of patent publication US10189841B2, “Purinones as ubiquitin-specific protease 1 inhibitors” (Forma Therapeutics, Inc., priority 2015, dated 2019).

USP1 (construct USP1 (I-785, GG670, 671AA)/UAF1 (I-677)-Flag), sequence (O94782 whole entry G670A/G671A): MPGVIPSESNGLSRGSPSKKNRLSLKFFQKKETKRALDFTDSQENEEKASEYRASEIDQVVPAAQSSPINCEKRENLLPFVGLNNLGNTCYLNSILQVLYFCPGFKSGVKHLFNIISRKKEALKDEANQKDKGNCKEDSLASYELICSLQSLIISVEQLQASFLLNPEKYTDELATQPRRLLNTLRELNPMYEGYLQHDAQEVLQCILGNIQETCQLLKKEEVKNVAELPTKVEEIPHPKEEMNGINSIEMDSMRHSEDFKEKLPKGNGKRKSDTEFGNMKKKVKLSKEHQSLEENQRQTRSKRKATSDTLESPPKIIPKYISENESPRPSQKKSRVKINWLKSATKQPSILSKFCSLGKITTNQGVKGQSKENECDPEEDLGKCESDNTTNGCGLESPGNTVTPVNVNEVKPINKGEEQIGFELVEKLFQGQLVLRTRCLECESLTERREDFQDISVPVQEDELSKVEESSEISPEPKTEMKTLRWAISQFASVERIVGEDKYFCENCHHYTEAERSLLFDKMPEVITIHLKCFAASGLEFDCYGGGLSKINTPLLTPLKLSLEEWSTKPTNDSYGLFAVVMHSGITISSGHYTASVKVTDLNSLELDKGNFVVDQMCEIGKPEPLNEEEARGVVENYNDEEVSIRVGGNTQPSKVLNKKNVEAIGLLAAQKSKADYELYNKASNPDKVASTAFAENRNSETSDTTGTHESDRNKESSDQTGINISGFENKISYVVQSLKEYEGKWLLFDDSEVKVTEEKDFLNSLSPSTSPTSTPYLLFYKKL
USP1 (construct USP1 (I-785, GG670, 671AA)/UAF1 (I-677)-Flag), sequence (Q8TAF3 whole entry partner): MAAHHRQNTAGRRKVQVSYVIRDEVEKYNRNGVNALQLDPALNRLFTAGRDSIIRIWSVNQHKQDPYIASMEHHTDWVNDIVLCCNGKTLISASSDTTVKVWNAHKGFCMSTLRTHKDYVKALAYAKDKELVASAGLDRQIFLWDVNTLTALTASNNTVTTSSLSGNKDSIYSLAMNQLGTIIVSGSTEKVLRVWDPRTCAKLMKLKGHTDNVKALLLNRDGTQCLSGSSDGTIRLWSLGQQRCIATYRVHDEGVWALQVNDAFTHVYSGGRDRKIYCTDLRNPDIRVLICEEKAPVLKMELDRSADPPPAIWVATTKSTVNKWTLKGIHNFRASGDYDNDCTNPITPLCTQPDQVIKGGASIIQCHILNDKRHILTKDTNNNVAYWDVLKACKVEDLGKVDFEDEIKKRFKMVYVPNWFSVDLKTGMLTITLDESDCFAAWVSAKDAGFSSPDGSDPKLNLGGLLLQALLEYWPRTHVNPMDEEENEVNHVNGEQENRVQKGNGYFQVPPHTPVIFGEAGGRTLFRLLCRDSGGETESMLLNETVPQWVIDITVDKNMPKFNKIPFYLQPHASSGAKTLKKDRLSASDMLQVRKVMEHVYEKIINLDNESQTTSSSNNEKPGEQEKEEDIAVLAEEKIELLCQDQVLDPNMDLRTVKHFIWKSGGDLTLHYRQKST

This assay concerns the target USP1 (construct USP1 (I-785, GG670, 671AA)/UAF1 (I-677)-Flag) (Homo sapiens (Human), UniProt O94782, G670A/G671A). The assay is described as follows: Ubiquitin-Rhodamine 110 assay for USP1 activity. Format: biochemical. Conditions: USP1/UAF1 25 pM, Ub-Rh110 25 nM, 30 min preincubation. Summed up:
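Two formats with the USP1/UAF1 complex and 25 nM ubiquitin-rhodamine 110 in pH 8.0 Tris buffer with calcium, glutathione and detergent. Single-point screening used 10 µM, 100 pM enzyme and 45 min. Inhibition was set against no-enzyme and DMSO wells.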
For `Cc1cc(C)n([C@H]2CC[C@@H](Cn3c(=O)[nH]c4cnc(-c5ccccc5C(C)C)nc43)CC2)n1` [Compound I-212, 9-(((1s,4s)-4-(3,5-dimethyl-1H-pyrazol-1-yl)cyclohexyl)methyl)-2-(2-isopropylphenyl)-7,9-dihydro-8H-purin-8-one], the IC50 was under 50 nM.
Compound `COCC1(N(C)C(=O)c2ccc(Cn3c(=O)[nH]c4cnc(-c5ccccc5C(C)C)nc43)cc2)CC1` [Compound I-391, 4-((2-(2-isopropylphenyl)-8-oxo-7,8-dihydro-9H-purin-9-yl)methyl)-N-(1-(methoxymethyl)cyclopropyl)-N-methylbenzamide] showed an IC50 of under 50 nM.
The value for `Cc1cc(C)n(-c2ccc([C@@H](C)n3c(=O)[nH]c4cnc(-c5ccccc5C(C)C)nc43)cc2)n1` [Compound I-190, (R)-9-(1-(4-(3,5-dimethyl-1H-pyrazol-1-yl)phenyl)ethyl)-2-(2-isopropylphenyl)-7,9-dihydro-8H-purin-8-one] was under 50 nM; that for `CC(C)c1ccccc1-c1ncc2[nH]c(=O)n(Cc3ccc(C(=O)N4CCCC45COC5)cc3)c2n1` [Compound I-411, 9-(4-(2-oxa-5-azaspiro[3.4]octane-5-carbonyl)benzyl)-2-(2-isopropylphenyl)-7,9-dihydro-8H-purin-8-one] was under 50 nM.
For `Cn1cc(C(F)(F)F)nc1-c1ccc(Cn2c(=O)[nH]c3cnc(-c4cccnc4N4CC(F)(F)C4)nc32)cc1` [Compound I-336, 2-(2-(3,3-difluoroazetidin-1-yl)pyridin-3-yl)-9-(4-(1-methyl-4-(trifluoromethyl)-1H-imidazol-2-yl)benzyl)-7,9-dihydro-8H-purin-8-one], the IC50 is under 50 nM.
The value for `CC(C)c1ccccc1-c1ncc2[nH]c(=O)n(Cc3ccc(-c4ncn(C)n4)cc3)c2n1` [Compound I-274, 2-(2-isopropylphenyl)-9-(4-(1-methyl-1H-1,2,4-triazol-3-yl)benzyl)-7,9-dihydro-8H-purin-8-one] was 50 to 200 nM; that for `CC(C)c1ncccc1-c1ncc2c(n1)n(Cc1ccc(-c3nc(C(F)(F)F)cn3C)cc1)c(=O)n2C1COC1` [Compound I-119, 2-(2-isopropylpyridin-3-yl)-9-(4-(1-methyl-4-(trifluoromethyl)-1H-imidazol-2-yl)benzyl)-7-(oxetan-3-yl)-7,9-dihydro-8H-purin-8-one] was 50 to 200 nM; that for `Cc1cn(C)c(-c2ccc(Cn3c(=O)n(C)c4cnc(-c5ccccc5C(C)C)nc43)cc2)n1` [Compound I-258, 9-(4-(1,4-dimethyl-1H-imidazol-2-yl)benzyl)-2-(2-isopropylphenyl)-7-methyl-7,9-dihydro-8H-purin-8-one] was under 50 nM.
The value for `CC1CCN(C(=O)c2ccc(Cn3c(=O)[nH]c4cnc(-c5ccccc5C(C)C)nc43)cc2)CC1` [Compound I-366, 2-(2-isopropylphenyl)-9-(4-(4-methylpiperidine-1-carbonyl)benzyl)-7,9-dihydro-8H-purin-8-one] was 50 to 200 nM.
`Cc1cn2ccnc2c(-c2ccc(Cn3c(=O)[nH]c4cnc(-c5ccccc5C(C)C)nc43)cc2)n1` [Compound I-306, 2-(2-isopropylphenyl)-9-(4-(6-methylimidazo[1,2-a]pyrazin-8-yl)benzyl)-7,9-dihydro-8H-purin-8-one] returned an IC50 of under 50 nM.
The value for `Cn1cc(C(F)(F)F)nc1-c1ccc(Cn2c(=O)[nH]c3cnc(-c4cccnc4N4CC(C(F)(F)F)C4)nc32)cc1` [Compound I-337, 9-(4-(1-methyl-4-(trifluoromethyl)-1H-imidazol-2-yl)benzyl)-2-(2-(3-(trifluoromethyl)azetidin-1-yl)pyridin-3-yl)-7,9-dihydro-8H-purin-8-one] was under 50 nM; that for `CC(C)c1ccccc1-c1ncc2c(n1)n(Cc1ccc(-n3cccn3)cc1)c(=O)n2C(C)C(=O)O` (centres unmarked) [Compound I-530, 2-(9-(4-(1H-Pyrazol-1-yl)benzyl)-2-(2-isopropylphenyl)-8-oxo-8,9-dihydro-7H-purin-7-yl)propanoic acid] was 200 to 2000 nM.
Turning to `COc1ccc(-c2ncc3[nH]c(=O)n(Cc4ccc(-c5nc(C(F)(F)F)cn5C)cc4)c3n2)c(F)n1` [Compound I-75, 2-(2-fluoro-6-methoxypyridin-3-yl)-9-(4-(1-methyl-4-(trifluoromethyl)-1H-imidazol-2-yl)benzyl)-7,9-dihydro-8H-purin-8-one], the IC50 was 50 to 200 nM.
For `CCC(CC)Oc1ncccc1-c1ncc2[nH]c(=O)n(Cc3ccc(-c4nc(C(F)(F)F)cn4C)cc3)c2n1` [Compound I-427, 9-(4-(1-methyl-4-(trifluoromethyl)-1H-imidazol-2-yl)benzyl)-2-(2-(pentan-3-yloxy)pyridin-3-yl)-7,9-dihydro-8H-purin-8-one] the value was under 50 nM; for `Cc1cc(C(F)(F)F)nn1-c1ccc(Cn2c(=O)[nH]c3cnc(-c4ccccc4C(C)C)nc32)cc1` [Compound I-194, 2-(2-isopropylphenyl)-9-(4-(5-methyl-3-(trifluoromethyl)-1H-pyrazol-1-yl)benzyl)-7,9-dihydro-8H-purin-8-one], under 50 nM; for `O=c1[nH]c2cnc(-c3ccccc3C3CC3)nc2n1Cc1ccc(-n2cccn2)cc1` [Compound I-94, 9-(4-(1H-pyrazol-1-yl)benzyl)-2-(2-cyclopropylphenyl)-7,9-dihydro-8H-purin-8-one], under 50 nM.
For `Cc1cc(C)n(-c2cnc(Cn3c(=O)[nH]c4cnc(-c5ccccc5C(C)C)nc43)nc2)n1` [Compound I-511, 9-((5-(3,5-Dimethyl-1H-pyrazol-1-yl)pyrimidin-2-yl)methyl)-2-(2-isopropylphenyl)-7,9-dihydro-8H-purin-8-one] the value was 200 to 2000 nM; for `Cc1cc(C(=O)Nc2ccc(Cn3c(=O)n(C)c4cnc(-c5ccccc5C(C)C)nc43)cc2)n(C)n1` [Compound I-469, N-(4-((2-(2-isopropylphenyl)-7-methyl-8-oxo-7,8-dihydro-9H-purin-9-yl)methyl)phenyl)-1,3-dimethyl-1H-pyrazole-5-carboxamide], 200 to 2000 nM.
`COC[C@@H]1CCCN1C(=O)c1ccc(Cn2c(=O)[nH]c3cnc(-c4ccccc4C(C)C)nc32)cc1` [Compound I-396, (S)-2-(2-isopropylphenyl)-9-(4-(2-(methoxymethyl)pyrrolidine-1-carbonyl)benzyl)-7,9-dihydro-8H-purin-8-one] registered an IC50 of 200 to 2000 nM.
For `CC(C)c1ncccc1-c1ncc2c(n1)n(Cc1ccc(-c3nc(C(F)(F)F)cn3C)cc1)c(=O)n2C` [Compound I-105, 2-(2-Isopropylpyridin-3-yl)-7-methyl-9-(4-(1-methyl-4-(trifluoromethyl)-1H-imidazol-2-yl)benzyl)-7,9-dihydro-8H-purin-8-one], the IC50 was under 50 nM.
For `CC(C)c1ccccc1-c1ncc2[nH]c(=O)n(Cc3ccc(-c4nc(C(F)(F)F)n(C)n4)cc3)c2n1` [Compound I-293, 2-(2-isopropylphenyl)-9-(4-(1-methyl-5-(trifluoromethyl)-1H-1,2,4-triazol-3-yl)benzyl)-7,9-dihydro-8H-purin-8-one] the value was under 50 nM; for `Cc1nc(-c2ccc(Cn3c(=O)[nH]c4cnc(-c5ccccc5C(C)C)nc43)cc2)nn1C` [Compound I-294, 9-(4-(1,5-dimethyl-1H-1,2,4-triazol-3-yl)benzyl)-2-(2-isopropylphenyl)-7,9-dihydro-8H-purin-8-one], under 50 nM; for `COCc1cn(-c2ccc(Cn3c(=O)[nH]c4cnc(-c5ccccc5C(C)C)nc43)cc2)nn1` [Compound I-344, 2-(2-isopropylphenyl)-9-(4-(4-(methoxymethyl)-1H-1,2,3-triazol-1-yl)benzyl)-7,9-dihydro-8H-purin-8-one], 200 to 2000 nM.
`Cn1cc(C(F)(F)F)nc1-c1ccc(Cn2c(=O)[nH]c3cnc(-c4cccnc4N4CCC(C(F)(F)F)CC4)nc32)cc1` [Compound I-329, 9-(4-(1-methyl-4-(trifluoromethyl)-1H-imidazol-2-yl)benzyl)-2-(2-(4-(trifluoromethyl)piperidin-1-yl)pyridin-3-yl)-7,9-dihydro-8H-purin-8-one]: the IC50 is under 50 nM.
For `CC(C)c1ccccc1-c1ncc2c(n1)n(Cc1ccc(-n3ccc(C4CCNCC4)n3)cc1)c(=O)n2C` [Compound I-433, 2-(2-isopropylphenyl)-7-methyl-9-(4-(3-(piperidin-4-yl)-1H-pyrazol-1-yl)benzyl)-7,9-dihydro-8H-purin-8-one] the value was 200 to 2000 nM; for `Cc1cn(C2COC2)c(-c2ccc(Cn3c(=O)[nH]c4cnc(-c5cccc(F)c5C(C)C)nc43)cc2)n1` [Compound I-202, 2-(3-fluoro-2-isopropylphenyl)-9-(4-(4-methyl-1-(oxetan-3-yl)-1H-imidazol-2-yl)benzyl)-7,9-dihydro-8H-purin-8-one], under 50 nM.
For `CC(C)c1ccccc1-c1ncc2[nH]c(=O)n([C@@H]3CC[C@H]3c3ccc(-n4cccn4)cc3)c2n1` [Compound I-163, 9-((1R,2S)-2-(4-(1H-pyrazol-1-yl)phenyl)cyclobutyl)-2-(2-isopropylphenyl)-7,9-dihydro-8H-purin-8-one] the value was under 50 nM; for `CC(C)c1ncccc1-c1ncc2c(n1)n(Cc1ccc(-c3nc(C(F)(F)F)cn3C)cc1)c(=O)n2C1CCOCC1` [Compound I-122, 2-(2-isopropylpyridin-3-yl)-9-(4-(1-methyl-4-(trifluoromethyl)-1H-imidazol-2-yl)benzyl)-7-(tetrahydro-2H-pyran-4-yl)-7,9-dihydro-8H-purin-8-one], 200 to 2000 nM; for `CC(C)c1ccccc1-c1ncc2[nH]c(=O)n(Cc3ccc(-n4cc(C5CCNCC5)cn4)cc3)c2n1` [Compound I-221, 2-(2-isopropylphenyl)-9-(4-(4-(piperidin-4-yl)-1H-pyrazol-1-yl)benzyl)-7,9-dihydro-8H-purin-8-one], 200 to 2000 nM.
